# According to patent US20100317685A1, “N-PHENYL-IMIDAZO[1,2-a]PYRIDINE-2-CARBOXAMIDE DERIVATIVES, THEIR PREPARATION AND THEIR THERAPEUTIC APPLICATION” (SANOFI-AVENTIS, priority 2008, published 2010):
# pEC50: −log10 of the molar value.
# Target: T1, mouse Nurr1 receptor (Mus musculus, UniProt Q06219)
# T1 construct: a cell line (N2A) endogenously expressing the mouse Nurr1 receptor; host or cells: Neuro-2A (N2A) mouse neuroblastoma cells stably transfected with 8NBRE-luciferase
# Assay: In vitro activity on N2A cells (NBRE-luciferase reporter)
# Type: cell-based
# Conditions: N2A-8NBRE cells, 24 hours incubation
# Method: Evaluation of the In Vitro Activity on N2A Cells
# The activity of the compounds according to the invention was evaluated on a cell line (N2A) endogenously expressing the mouse Nurr1 receptor and stably transfected with the NOT binding response element (NBRE) coupled to the luciferase reporter gene. The EC50 values are between 0.01 and 1000 nM. The assays were carried out according to the procedure described below.
# The Neuro-2A cell line comes from a standard commercial source (ATCC). The Neuro-2A clone was obtained, from a spontaneous tumour originating from an A albino mouse strain, by R. J Klebe et al. This Neuro-2A line is subsequently stably transfected with 8NBRE-luciferase. The N2A-8NBRE cells are cultured until confluence in 75 cm^2 culture flasks containing DMEM supplemented with 10% of foetal calf serum, 4.5 g/l of glucose and 0.4 mg/ml of geneticin. After a week of culture, the cells are recovered with 0.25% trypsin for 30 seconds and then resuspended in DMEM without phenol red, containing 4.5 g/l of glucose and 10% of Hyclone delipidized serum, and deposited into transparent-bottom 96-well white plates. The cells are deposited at a rate of 60 000 per well in 75 μl for 24 hours before the addition of the products. […] The plates are subsequently measured in a luminescence counter for microplates after having been sealed with an adhesive film. […]
# T1 sequence (Q06219 whole entry): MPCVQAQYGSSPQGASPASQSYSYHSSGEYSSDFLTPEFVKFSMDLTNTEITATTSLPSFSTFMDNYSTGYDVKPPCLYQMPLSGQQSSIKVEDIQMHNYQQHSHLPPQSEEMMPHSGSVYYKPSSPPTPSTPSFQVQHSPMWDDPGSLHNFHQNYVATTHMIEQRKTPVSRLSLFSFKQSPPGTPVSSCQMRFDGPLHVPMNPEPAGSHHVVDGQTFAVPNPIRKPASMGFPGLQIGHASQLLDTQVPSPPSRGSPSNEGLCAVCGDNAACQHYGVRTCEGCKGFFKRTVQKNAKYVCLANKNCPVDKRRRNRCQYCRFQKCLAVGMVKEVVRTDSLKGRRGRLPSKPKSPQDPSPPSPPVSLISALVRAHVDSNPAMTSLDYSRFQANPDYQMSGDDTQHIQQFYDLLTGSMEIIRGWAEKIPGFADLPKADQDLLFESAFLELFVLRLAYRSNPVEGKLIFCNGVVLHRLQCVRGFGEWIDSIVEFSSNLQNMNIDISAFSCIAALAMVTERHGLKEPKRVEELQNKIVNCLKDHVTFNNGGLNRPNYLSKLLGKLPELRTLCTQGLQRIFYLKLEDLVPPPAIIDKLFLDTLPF
row,SMILES,pEC50
1,"N#Cc1c(F)cccc1NC(=O)c1cn2cc(-c3cccc(CO)c3)ccc2n1 [Compound 8, N-(2-cyano-3-fluorophenyl)-6-[3-(hydroxymethyl)phenyl]imidazo[1,2-a]pyridine-2-carboxamide]",9.40
2,"N#Cc1cccc(NC(=O)c2cn3cc(-c4cccc(CO)c4)ccc3n2)c1 [Compound 5, N-(3-cyanophenyl)-6-[3-(hydroxymethyl)phenyl]imidazo[1,2-a]pyridine-2-carboxamide]",7.57
